Measured values reported in patent US9751919B2, “Antimicrobial compositions comprising a hyaluronic acid binding peptide and a β-lactam antibiotic” (priority 2012, dated 2017).
“Also recorded” adds a separate entry of the source. Marks after values point to notes of the source that are not given here.

What was measured:
S. maltophilia = test: Checkerboard assay (FIC index); assay type: cell-based, Stenotrophomonas maltophilia; conditions: antibiotic combined with PEP35
Protocol: (§1) The checkerboard assays were carried out as described by Eliopoulos and Moellering (Chapter 9) in Antibiotic in Laboratory Medicine, Lorian Ed. 1996 as well as Bonapace et al. Diagnostic Microbiology and Infectious Diseases 2002; 44:363-366 and Bonapace et al. Diagnostic Microbiology and Infectious Diseases 2000; 38:43-50. In brief, checkerboard assays were performed in 96 well microtitre trays using an 8-by-8 well configuration. […] 96-well custom designed microtitre plates contained 100 ul/well of cation adjusted Mueller-Hinton broth (eg. for Enterobacteriaceae) with or without lysed horse blood (2-5% V/V) [eg. for S. pneumoniae] and were inoculated to achieve a final concentration of approximately 5×10^5 CFU/ml and incubated in ambient air for 24 hours prior to reading. Colony counts were performed periodically to confirm inocula. Quality control was performed every two weeks using a variety of ATCC QC organisms including; S. pneumoniae 49619, S. aureus 29213, E. faecalis 29212, E. coli 25922 and P. aeruginosa 27853. For all antimicrobials as well as PEP35, CLSI criteria was used.
(§2) The fractional inhibitory concentration index (FIC index) was used to interpret synergy, antagonism or additivity/indifference. FIC index=FIC of drug A+FIC of drug B where:
(§3) The FIC of drug A and drug B is calculated as follows, FIC drug A=MIC of drug A in combination/MIC of drug A alone and FIC of drug B=MIC of drug B in combination/MIC of drug B alone. Synergy is defined as FIC index ≦0.5, additivity/indifference FIC >0.5-4 and antagonism FIC index >4.
(§4) Antimicrobials used included PEP35, cefazolin, ceftriaxone, vancomycin, linezolid, tigecycline and daptomycin versus Gram-positive cocci and PEP35, gentamicin, levofloxacin, piperacillin/tazobactam, meropenem and colistin (Polymyxin E) versus Gram-negative bacilli. These agents were obtained as laboratory grade powders from their respective manufacturers. Stock solutions were prepared and dilutions made as described by the Clinical Laboratory Standards Institute (2005 CLSI).
(§5) Organisms included Gram-positive cocci (2 strains of each): Methicillin-susceptible Staphylococcus aureus (MSSA), community-associated (CA) and healthcare-associated (HA) methicillin-resistant Staphylococcus aureus (MRSA), vancomycin-intermediate Staphylococcus aureus (VISA), vancomycin-resistant Staphylococcus aureus (VRSA), methicillin-resistant Staphylococcus epidermidis (MRSE), Streptococcus pyogenes, Streptococcus agalactiae, Streptococcus pneumoniae, Enterococcus faecalis, Enterococcus faecium and vancomycin-resistant enterococcus (VRE). Gram-negative bacilli tested (2 strains of each) included: E. coli, Pseudomonas aeruginosa, Klebsiella pneumoniae, K. oxytoca, Enterobacter cloacae, P. mirabilis and Stenotrophomonas maltophilia. MIC testing, following two subcultures from frozen stock were determined by the CLSI 2005 approved broth microdilution method.

K. pneumoniae = test: Checkerboard assay (FIC index); assay type: cell-based, Klebsiella pneumoniae; conditions: antibiotic combined with PEP35
Protocol: as §1, §2, §3, §4, §5

P. aeruginosa = test: Checkerboard assay (FIC index); assay type: cell-based, Pseudomonas aeruginosa; conditions: antibiotic combined with PEP35
Protocol: as §1, §2, §3, §4, §5

P. mirabilis [1] = test: Checkerboard assay (FIC index); assay type: cell-based, Proteus mirabilis; conditions: antibiotic combined with PEP35
Protocol: as §1, §2, §3, §4, §5

K. oxytoca = test: Checkerboard assay (FIC index); assay type: cell-based, Klebsiella oxytoca; conditions: antibiotic combined with PEP35
Protocol: as §1, §2, §3, §4, §5

[2] = tested on: MRSA, VISA, VRSA and E. coli; test: Checkerboard assay, panel statement; assay type: cell-based
Protocol: Checkerboard assays were carried out as described by Bonapace et al.
as §1, with “Diagnostic” for “The checkerboard assays were carried out as described by Eliopoulos and Moellering (Chapter 9) in Antibiotic in Laboratory Medicine, Lorian Ed. 1996 as well as Bonapace et al. Diagnostic”, “2002; 44:363-366.” for “2002; 44:363-366 and Bonapace et al. Diagnostic Microbiology and Infectious Diseases 2000; 38:43-50.”, “27853. […] All peptides were assessed for synergy with β-lactams and vancomycin.” for “27853.”, “as the peptides,” for “as PEP35,”, “criteria were” for “criteria was”
as §2
as §3, with “was” for “is”, “additivity/indifference defined as a” for “additivity/indifference”, “between 0.5 and 4” for “>0.5-4”, “antagonism defined as an” for “antagonism”
The fractional inhibitory concentration index (FIC index) was used to interpret synergy, antagonism or additivity/indifference. FIC index=FIC of drug A+FIC of drug B where the FIC of drug A and drug B was calculated as follows, FIC drug A=MIC of drug A in combination/MIC of drug A alone and FIC of drug B=MIC of drug B in combination/MIC of drug B alone. Synergy was defined as FIC index ≦0.5, additivity/indifference defined as an FIC of between 0.5 and 4 and antagonism defined as an FIC index >4.

Gram-negative bacilli = test: Checkerboard assay, panel statement; assay type: cell-based; conditions: with gentamicin, levofloxacin, piperacillin-tazobactam, meropenem and colistin; all Gram-negative bacilli tested
Protocol: as §1, §2, §3, §4
as §5, with “Gram-negative bacilli tested (2 strains of each) included: E. coli, Pseudomonas aeruginosa, Klebsiella pneumoniae, K. oxytoca, Enterobacter cloacae, P. mirabilis and Stenotrophomonas maltophilia.” left out

Gram-positive cocci = test: Checkerboard assay, panel statement; assay type: cell-based
Protocol: as §1, §2, §3, §4
as §5, with “Gram-negative bacilli tested (2 strains of each) included: E. coli, Pseudomonas aeruginosa, Klebsiella pneumoniae, K. oxytoca, Enterobacter cloacae, P. mirabilis and Stenotrophomonas maltophilia.” left out

P. mirabilis [3] = test: MIC, agent alone (broth microdilution); assay type: cell-based, Proteus mirabilis; conditions: footnote to Table 12; P. mirabilis 80267 and 81569
From the text: as §5

[4] = with cefazolin and ceftriaxone, versus CA-MRSA, HA-MRSA, VISA and VRSA
[5] = with meropenem versus CA-MRSA, HA-MRSA, and VISA

Molecule	Avg ΣFIC (range) (S. maltophilia; S. maltophilia 73062)	Avg ΣFIC (range) (S. maltophilia; S. maltophilia 77424)	Avg ΣFIC (range) (K. pneumoniae; K. pneumoniae 70508)	Avg ΣFIC (range) (K. pneumoniae; K. pneumoniae 77081)	Avg ΣFIC (range) (P. aeruginosa; P. aeruginosa 70849)	Avg ΣFIC (range) (P. aeruginosa; P. aeruginosa 71841)	Avg ΣFIC (range) (P. mirabilis [1]; P. mirabilis 80267)	Avg ΣFIC (range) (P. mirabilis [1]; P. mirabilis 81569)	Avg ΣFIC (range) (K. oxytoca; K. oxytoca 75316)	Avg ΣFIC (range) (K. oxytoca; K. oxytoca 76874)	synergy (in words) [2, 4]	synergy (in words) [2, 5]	interaction (in words) (Gram-negative bacilli)	interaction (in words) (Gram-positive cocci; with cefazolin and ceftriaxone, CA-MRSA and HA-MRSA)	antagonism (in words) (Gram-positive cocci; with cefazolin, ceftriaxone, daptomycin, linezolid, tigecycline and vancomycin, any streptococci, staphylococci and enterococci tested)	interaction (in words) (Gram-positive cocci; with the six antibiotics, all streptococci, staphylococci and enterococci except CA-MRSA and HA-MRSA)	MIC (P. mirabilis [3])
C[C@@H](O)[C@H]1C(=O)N2C(C(=O)O)=C(S[C@@H]3CN[C@H](C(=O)N(C)C)C3)[C@H](C)[C@H]12 [Meropenem]	0.77 (0.5-1.03)	1.05 (0.75-1.25)	1.19 (1.03-1.5)	1.21 (1.03-1.5)	1.21 (1.03-1.5)	1.10 (1.0-1.25)	>1*	>1*	1.1 (1.0-1.25)	0.80 (0.53-1.12)							
KKKKKLQLQLNLIKKKVQVSVVVVRRH (Reordered human peptide sequence) [Scrambled PEP35]											synergistic effect	synergistic effect					
LKQKIKHVVKLKVVVKLRSQLVKRKQN (listed as Mus sp.) [PEP35]											synergistic effect	synergistic effect	did not demonstrate antagonism or synergy; also recorded: additive	synergistic	did not demonstrate antagonism	additive	*PEP35 MIC > 4096
piperacillin/tazobactam	0.98 (0.62-1.25)	1.04 (0.75-1.25)	0.93 (0.62-1.12)	1.05 (0.75-1.25)	0.92 (0.62-1.12)	0.88 (0.56-1.12)	>0.5*	>0.5*	0.93 (0.62-1.12)	0.83 (0.53-1.12)							
